Experimental data: article PMC6320911, “Discovery of a Natural Syk Inhibitor from Chinese Medicine through a Docking-Based Virtual Screening and Biological Assay Study” (Molecules, 2018)

Target: T1, Spleen tyrosine kinase (Syk) (Homo sapiens, UniProt P43405)
T1 construct: Syk (ab60886)
Assay: ADP-Glo luminescent kinase assay with dose-response ([…] ATP in substrate solution, poly Glu:Tyr […])
Format: biochemical

IC50: 1640 nM
SMILES: Cc1coc2c1C(=O)C(=O)c1c-2ccc2c(C)cccc12 [compound 13, Tanshinone I]
